Laboratory results from ChEMBL document CHEMBL4765362, “Thirty Years of HDAC Inhibitors: 2020 Insight and Hindsight” (J Med Chem, 2020).

Columns and labels:
[1] = target: T1, Polyamine deacetylase HDAC10 (Danio rerio, UniProt F1QCV2); experiment: Inhibition of zebrafish HDAC10 (2 to 675 residues) expressed in Escherichia coli BL21(DE3) cells using N-acetylputrescine as substrate preincubated for 10 mins followed by substrate and measured after 45 to 60 mins by liquid chromatography-mass spectrometry
T1 sequence (F1QCV2 whole entry): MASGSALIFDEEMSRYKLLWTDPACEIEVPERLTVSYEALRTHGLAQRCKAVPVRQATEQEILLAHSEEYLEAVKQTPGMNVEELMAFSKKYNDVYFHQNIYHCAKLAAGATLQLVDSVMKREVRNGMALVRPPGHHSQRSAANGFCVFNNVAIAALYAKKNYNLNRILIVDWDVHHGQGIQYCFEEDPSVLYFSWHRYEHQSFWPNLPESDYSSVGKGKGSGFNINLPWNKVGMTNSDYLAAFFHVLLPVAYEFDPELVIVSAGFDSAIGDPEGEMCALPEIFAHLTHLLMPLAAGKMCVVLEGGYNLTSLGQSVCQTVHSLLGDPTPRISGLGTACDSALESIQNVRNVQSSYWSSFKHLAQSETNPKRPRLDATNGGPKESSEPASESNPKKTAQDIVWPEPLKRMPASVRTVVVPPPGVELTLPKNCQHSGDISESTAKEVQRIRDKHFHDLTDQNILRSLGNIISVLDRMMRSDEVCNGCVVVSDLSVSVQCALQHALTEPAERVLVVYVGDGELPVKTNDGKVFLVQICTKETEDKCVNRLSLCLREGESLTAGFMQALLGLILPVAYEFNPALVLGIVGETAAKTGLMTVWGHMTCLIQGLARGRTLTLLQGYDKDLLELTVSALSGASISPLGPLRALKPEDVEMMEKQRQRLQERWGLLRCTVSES

[2] = target: T2, Polyamine deacetylase HDAC10 (Homo sapiens, UniProt Q969S8); experiment: Inhibition of HDAC10 (unknown origin)
T2 sequence (Q969S8 whole entry): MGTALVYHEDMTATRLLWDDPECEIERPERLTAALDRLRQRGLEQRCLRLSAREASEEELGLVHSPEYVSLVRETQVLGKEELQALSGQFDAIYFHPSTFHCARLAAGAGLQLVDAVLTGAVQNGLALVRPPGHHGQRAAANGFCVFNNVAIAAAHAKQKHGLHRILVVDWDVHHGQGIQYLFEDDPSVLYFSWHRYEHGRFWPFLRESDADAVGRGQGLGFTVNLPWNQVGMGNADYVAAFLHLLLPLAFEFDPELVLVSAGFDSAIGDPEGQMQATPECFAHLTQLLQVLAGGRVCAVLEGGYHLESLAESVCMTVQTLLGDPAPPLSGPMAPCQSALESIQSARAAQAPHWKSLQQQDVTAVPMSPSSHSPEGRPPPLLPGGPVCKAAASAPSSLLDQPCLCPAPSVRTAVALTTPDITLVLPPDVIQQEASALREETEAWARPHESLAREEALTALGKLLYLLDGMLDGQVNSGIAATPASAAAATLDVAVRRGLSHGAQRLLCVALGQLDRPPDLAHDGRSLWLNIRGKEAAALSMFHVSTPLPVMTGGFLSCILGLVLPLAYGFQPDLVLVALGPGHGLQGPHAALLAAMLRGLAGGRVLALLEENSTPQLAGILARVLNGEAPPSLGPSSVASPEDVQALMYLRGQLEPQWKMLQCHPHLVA

Histone deacetylase 11 = target: T3, Histone deacetylase 11 (Homo sapiens, UniProt Q96DB2); experiment: Inhibition of HDAC11 (unknown origin)
T3 sequence (Q96DB2 whole entry): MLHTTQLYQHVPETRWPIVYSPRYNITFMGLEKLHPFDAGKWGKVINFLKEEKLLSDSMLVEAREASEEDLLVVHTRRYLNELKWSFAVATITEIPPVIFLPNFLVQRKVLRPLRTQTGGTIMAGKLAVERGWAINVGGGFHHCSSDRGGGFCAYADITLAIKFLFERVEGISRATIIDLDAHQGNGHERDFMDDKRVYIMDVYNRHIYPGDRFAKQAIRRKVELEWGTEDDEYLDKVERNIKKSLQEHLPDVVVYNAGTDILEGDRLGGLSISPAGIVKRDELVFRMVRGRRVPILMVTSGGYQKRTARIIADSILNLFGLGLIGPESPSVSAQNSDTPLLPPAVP

Histone deacetylase 8 = target: T4, Histone deacetylase 8 (Homo sapiens, UniProt Q9BY41); experiment: Inhibition of recombinant human C-terminal His-tagged HDAC8 expressed in baculovirus infected sf9 cells using acetyl-lysine tripeptide as substrate preincubated for 10 mins followed by substrate addition and shaken for 5 secs and measured over 30 mins
T4 sequence (Q9BY41 whole entry): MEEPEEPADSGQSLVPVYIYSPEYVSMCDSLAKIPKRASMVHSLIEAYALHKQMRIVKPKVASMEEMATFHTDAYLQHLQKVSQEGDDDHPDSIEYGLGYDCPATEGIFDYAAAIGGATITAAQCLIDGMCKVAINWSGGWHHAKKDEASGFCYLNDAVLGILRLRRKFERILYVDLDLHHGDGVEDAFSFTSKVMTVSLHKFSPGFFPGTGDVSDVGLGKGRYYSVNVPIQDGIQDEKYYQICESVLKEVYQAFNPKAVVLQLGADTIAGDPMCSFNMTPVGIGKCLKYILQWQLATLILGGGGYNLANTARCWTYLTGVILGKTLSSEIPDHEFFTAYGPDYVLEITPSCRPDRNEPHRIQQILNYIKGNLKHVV

Histone deacetylase 9 = Histone deacetylase 9 (Homo sapiens, UniProt Q9UKV0); experiment: Inhibition of C-terminal His-tagged human HDAC9 (604 to 1066 residues) expressed in baculovirus infected sf9 cells using acetyl-lysine tripeptide as substrate preincubated for 10 mins followed by substrate addition and shaken for 5 secs and measured over 30 mins
Chain of Histone deacetylase 9 (Q9UKV0 whole entry, the tested form may be a part): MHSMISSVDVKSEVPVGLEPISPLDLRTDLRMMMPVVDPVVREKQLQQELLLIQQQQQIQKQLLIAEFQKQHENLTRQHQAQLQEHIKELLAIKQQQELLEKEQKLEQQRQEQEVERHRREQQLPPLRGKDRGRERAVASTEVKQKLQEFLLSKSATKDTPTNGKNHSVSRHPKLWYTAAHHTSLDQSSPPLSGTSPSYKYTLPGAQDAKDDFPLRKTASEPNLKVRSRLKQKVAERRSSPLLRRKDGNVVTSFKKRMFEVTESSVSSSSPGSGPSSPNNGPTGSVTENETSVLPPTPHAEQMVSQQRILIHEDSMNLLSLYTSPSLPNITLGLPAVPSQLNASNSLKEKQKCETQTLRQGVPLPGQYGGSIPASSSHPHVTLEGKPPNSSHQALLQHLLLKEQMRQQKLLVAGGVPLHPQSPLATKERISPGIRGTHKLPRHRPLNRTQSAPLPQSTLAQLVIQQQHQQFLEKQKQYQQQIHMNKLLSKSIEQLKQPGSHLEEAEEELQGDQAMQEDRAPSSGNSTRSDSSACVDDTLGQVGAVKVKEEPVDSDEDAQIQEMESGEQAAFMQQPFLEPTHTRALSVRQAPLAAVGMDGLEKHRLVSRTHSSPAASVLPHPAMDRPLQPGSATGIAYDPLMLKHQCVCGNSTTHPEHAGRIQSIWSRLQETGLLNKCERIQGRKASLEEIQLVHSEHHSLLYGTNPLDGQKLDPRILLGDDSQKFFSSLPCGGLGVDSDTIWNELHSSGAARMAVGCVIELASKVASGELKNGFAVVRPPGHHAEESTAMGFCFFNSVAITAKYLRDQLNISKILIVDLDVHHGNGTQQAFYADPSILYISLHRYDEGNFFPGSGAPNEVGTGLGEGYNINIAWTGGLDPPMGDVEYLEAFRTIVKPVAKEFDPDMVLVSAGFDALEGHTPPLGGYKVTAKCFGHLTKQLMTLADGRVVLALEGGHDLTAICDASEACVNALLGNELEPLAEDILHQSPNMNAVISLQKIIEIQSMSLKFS

[3] = target: T5, Protein deacetylase HDAC6 (Homo sapiens, UniProt Q9UBN7); experiment: Inhibition of HDAC6 (unknown origin) using acetyl-lysine tripeptide as substrate preincubated for 10 mins followed by substrate addition and shaken for 5 secs and measured over 30 mins
T5 sequence (Q9UBN7 whole entry): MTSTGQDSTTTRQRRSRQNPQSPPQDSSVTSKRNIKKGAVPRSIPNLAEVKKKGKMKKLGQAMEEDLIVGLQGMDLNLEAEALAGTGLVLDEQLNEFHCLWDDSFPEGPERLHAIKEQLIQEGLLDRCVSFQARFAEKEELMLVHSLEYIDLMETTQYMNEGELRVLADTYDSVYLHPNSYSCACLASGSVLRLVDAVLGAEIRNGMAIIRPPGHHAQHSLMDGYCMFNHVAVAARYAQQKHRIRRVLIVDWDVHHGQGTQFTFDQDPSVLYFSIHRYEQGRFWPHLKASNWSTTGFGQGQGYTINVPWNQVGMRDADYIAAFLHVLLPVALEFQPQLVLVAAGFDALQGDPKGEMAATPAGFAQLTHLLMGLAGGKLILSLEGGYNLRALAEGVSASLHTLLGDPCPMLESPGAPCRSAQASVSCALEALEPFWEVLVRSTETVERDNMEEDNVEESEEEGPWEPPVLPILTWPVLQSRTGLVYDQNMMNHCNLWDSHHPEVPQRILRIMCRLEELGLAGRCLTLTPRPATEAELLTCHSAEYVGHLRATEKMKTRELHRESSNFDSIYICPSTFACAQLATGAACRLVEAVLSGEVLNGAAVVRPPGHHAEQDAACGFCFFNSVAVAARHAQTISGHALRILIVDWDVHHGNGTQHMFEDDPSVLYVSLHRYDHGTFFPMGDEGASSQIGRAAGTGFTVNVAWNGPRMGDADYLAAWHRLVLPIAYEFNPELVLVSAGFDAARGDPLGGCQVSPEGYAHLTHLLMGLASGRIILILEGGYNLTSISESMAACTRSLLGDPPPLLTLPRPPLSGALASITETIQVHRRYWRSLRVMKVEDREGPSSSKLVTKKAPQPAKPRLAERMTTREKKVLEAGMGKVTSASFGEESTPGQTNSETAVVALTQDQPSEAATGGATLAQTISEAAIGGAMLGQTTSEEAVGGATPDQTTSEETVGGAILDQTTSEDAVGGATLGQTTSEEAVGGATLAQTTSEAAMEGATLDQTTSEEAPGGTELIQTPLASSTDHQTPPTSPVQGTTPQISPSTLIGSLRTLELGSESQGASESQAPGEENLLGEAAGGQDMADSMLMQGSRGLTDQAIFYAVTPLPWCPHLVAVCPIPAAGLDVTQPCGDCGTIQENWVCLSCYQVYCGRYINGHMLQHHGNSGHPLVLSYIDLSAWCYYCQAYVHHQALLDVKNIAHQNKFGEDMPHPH

Histone deacetylase 4 = Histone deacetylase 4 (Homo sapiens, UniProt P56524); experiment: Inhibition of human HDAC4 expressed in baculovirus infected sf9 cells using acetyl-lysine tripeptide as substrate preincubated for 10 mins followed by substrate addition and shaken for 5 secs and measured over 30 mins
Chain of Histone deacetylase 4 (P56524 whole entry): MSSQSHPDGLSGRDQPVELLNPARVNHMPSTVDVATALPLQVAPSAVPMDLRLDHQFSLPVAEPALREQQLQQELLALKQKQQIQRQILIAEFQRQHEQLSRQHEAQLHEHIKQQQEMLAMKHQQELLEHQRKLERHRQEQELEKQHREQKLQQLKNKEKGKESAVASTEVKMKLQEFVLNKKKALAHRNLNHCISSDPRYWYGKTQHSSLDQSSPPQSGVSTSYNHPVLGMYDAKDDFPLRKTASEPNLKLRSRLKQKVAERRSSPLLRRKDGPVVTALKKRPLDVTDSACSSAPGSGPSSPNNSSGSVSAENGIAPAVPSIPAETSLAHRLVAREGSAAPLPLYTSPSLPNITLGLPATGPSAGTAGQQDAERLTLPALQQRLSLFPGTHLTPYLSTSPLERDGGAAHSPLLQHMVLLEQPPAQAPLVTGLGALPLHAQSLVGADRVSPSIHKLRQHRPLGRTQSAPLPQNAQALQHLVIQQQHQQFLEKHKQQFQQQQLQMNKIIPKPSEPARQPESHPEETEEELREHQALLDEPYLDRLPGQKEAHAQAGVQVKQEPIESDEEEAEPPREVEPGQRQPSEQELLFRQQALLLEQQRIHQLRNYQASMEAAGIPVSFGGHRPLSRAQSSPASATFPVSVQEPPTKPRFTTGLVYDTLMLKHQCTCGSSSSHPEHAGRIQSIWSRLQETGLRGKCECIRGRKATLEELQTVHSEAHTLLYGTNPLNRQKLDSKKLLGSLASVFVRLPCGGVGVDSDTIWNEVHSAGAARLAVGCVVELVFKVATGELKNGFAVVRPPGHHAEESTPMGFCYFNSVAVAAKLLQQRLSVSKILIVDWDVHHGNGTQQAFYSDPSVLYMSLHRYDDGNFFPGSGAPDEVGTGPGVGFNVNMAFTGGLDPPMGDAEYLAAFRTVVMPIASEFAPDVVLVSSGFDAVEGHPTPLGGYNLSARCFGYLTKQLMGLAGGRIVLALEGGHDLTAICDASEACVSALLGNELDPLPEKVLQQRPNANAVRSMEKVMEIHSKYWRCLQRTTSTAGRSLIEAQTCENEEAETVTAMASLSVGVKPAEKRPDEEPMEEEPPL

Histone deacetylase 2 = Histone deacetylase 2 (Homo sapiens, UniProt Q92769); experiment: Inhibition of human HDAC2 expressed in Sf9 cells using acetyl-lysine tripeptide as substrate preincubated for 10 mins followed by substrate addition and shaken for 5 secs and measured over 30 mins
[4] = target: Histone deacetylase 3/Nuclear receptor corepressor 2 (HDAC3/NCoR2) (Homo sapiens, UniProt O15379); experiment: Inhibition of His-tagged GST-fused human HDAC3/NcoR2 expressed in sf9 cells using acetyl-lysine tripeptide as substrate preincubated for 10 mins followed by substrate addition and shaken for 5 secs and measured over 30 mins
Chain of Histone deacetylase 3/Nuclear receptor corepressor 2 (HDAC3/NCoR2) (O15379 whole entry, the tested form may be a part): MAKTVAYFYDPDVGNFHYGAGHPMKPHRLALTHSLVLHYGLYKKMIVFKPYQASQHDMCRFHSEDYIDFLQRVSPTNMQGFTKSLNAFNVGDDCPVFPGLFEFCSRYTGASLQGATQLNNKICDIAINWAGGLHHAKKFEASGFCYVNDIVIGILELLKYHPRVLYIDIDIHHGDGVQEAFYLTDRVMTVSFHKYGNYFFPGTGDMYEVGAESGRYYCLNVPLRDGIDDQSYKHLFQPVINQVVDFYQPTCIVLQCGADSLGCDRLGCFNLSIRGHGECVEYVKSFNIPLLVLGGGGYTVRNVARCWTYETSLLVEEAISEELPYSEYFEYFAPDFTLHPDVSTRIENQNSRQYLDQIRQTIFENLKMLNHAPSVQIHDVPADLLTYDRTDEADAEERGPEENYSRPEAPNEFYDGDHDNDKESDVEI
Chain of Histone deacetylase 3/Nuclear receptor corepressor 2 (HDAC3/NCoR2) (Q9Y618 whole entry, further chain, the tested form may be a part): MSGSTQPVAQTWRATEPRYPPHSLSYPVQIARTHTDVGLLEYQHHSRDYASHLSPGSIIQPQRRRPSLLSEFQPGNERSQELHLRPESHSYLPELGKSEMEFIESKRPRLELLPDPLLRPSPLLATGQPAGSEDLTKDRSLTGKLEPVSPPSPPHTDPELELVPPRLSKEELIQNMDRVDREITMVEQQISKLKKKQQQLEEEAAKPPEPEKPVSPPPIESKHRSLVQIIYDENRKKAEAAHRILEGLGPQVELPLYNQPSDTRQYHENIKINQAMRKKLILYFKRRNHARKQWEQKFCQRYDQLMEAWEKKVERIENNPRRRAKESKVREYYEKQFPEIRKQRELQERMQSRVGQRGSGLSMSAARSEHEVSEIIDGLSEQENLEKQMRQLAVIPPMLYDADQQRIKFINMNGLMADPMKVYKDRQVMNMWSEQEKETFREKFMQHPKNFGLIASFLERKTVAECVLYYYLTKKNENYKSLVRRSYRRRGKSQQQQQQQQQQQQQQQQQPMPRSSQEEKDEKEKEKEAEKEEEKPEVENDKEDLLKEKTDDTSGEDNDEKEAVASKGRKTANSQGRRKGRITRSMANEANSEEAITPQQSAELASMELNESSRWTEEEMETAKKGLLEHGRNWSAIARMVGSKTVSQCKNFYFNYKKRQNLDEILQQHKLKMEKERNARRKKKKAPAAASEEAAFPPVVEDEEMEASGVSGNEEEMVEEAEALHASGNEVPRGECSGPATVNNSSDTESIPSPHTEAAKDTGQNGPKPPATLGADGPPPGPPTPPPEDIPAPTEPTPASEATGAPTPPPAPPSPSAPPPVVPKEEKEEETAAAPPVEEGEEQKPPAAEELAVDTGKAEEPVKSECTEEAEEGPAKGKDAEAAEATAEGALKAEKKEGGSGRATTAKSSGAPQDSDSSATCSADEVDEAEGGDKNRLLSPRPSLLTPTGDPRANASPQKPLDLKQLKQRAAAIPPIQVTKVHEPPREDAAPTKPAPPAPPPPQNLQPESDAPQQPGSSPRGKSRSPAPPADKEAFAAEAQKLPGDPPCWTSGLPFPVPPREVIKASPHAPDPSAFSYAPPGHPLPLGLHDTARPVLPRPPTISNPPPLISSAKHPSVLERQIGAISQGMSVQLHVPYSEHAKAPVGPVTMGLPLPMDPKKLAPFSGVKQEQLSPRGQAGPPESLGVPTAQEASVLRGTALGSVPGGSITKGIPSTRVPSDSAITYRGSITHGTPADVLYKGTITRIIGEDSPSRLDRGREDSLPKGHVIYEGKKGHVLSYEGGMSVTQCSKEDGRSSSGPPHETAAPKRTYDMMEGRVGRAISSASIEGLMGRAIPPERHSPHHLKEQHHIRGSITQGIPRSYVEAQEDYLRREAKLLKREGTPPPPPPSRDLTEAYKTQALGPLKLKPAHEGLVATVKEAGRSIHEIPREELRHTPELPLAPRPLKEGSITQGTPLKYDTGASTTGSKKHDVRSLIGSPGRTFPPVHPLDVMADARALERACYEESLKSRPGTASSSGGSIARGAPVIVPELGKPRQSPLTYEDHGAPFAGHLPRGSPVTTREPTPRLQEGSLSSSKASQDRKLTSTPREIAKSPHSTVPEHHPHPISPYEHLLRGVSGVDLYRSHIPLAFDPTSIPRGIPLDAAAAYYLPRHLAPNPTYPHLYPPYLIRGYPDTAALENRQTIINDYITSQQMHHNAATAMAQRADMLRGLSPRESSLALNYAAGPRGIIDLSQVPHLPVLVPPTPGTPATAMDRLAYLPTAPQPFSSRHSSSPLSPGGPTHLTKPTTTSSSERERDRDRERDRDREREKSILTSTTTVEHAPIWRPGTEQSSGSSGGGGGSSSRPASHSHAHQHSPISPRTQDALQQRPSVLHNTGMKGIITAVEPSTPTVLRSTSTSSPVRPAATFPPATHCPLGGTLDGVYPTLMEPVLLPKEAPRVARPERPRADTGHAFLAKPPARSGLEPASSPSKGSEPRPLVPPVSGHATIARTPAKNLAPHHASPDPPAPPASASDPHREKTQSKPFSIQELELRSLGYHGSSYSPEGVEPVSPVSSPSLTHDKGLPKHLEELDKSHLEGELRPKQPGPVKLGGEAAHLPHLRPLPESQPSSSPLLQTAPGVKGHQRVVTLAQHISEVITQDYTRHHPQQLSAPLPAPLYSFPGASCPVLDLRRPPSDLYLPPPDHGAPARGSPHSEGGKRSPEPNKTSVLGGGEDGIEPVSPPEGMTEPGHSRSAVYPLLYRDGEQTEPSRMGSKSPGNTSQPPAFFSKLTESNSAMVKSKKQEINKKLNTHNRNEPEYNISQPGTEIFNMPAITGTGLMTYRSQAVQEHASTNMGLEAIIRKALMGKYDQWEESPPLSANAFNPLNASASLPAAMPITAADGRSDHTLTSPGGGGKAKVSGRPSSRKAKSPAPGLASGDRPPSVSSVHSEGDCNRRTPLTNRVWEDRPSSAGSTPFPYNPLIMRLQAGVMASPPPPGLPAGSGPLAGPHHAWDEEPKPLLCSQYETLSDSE

Histone deacetylase 5 = Histone deacetylase 5 (Homo sapiens, UniProt Q9UQL6); experiment: Inhibition of human HDAC5 using acetyl-lysine tripeptide as substrate preincubated for 10 mins followed by substrate addition and shaken for 5 secs and measured over 30 mins
Histone deacetylase 7 = target: T6, Histone deacetylase 7 (Homo sapiens, UniProt Q8WUI4); experiment: Inhibition of human N-terminal GST-tagged HDAC7 (518 to end residues) expressed in baculovirus infected sf9 cells using acetyl-lysine tripeptide as substrate preincubated for 10 mins followed by substrate addition and shaken for 5 secs and measured over 30 mins
T6 sequence (Q8WUI4 whole entry): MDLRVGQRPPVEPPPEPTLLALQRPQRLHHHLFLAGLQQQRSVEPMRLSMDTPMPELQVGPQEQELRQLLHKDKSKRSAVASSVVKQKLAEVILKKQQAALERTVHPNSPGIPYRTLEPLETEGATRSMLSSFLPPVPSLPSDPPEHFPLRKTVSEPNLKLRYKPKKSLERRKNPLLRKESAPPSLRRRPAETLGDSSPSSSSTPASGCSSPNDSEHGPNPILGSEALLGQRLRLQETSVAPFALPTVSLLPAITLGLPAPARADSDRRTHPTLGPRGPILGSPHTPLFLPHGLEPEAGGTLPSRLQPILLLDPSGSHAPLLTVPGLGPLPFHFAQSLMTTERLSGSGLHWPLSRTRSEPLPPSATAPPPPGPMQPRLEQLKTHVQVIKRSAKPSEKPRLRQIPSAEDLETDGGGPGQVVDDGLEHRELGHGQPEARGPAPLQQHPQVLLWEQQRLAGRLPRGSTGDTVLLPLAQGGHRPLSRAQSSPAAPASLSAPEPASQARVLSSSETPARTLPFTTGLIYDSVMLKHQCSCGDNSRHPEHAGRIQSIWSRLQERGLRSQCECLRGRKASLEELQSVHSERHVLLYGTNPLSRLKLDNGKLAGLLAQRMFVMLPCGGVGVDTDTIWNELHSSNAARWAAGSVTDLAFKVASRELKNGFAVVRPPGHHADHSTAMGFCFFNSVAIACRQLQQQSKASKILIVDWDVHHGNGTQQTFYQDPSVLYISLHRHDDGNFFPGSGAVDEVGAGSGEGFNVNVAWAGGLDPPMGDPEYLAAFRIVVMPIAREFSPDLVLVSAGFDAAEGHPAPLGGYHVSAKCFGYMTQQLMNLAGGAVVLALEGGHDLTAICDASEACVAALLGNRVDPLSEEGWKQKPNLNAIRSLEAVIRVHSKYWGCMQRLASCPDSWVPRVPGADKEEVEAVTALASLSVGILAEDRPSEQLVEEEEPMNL

NCCCNCCCCCC(=O)NO
IC50 [1]: 120 nM

Nc1cc(F)ccc1NC(=O)c1ccc(CNC(=O)/C=C/c2cccnc2)cc1 [TUCIDINOSTAT]
IC50 [2]: 100 nM | IC50 (Histone deacetylase 11): 400 nM

Nc1ccc(-c2cccs2)cc1NC(=O)c1ccc2nc(N3CCNCC3)ccc2c1
IC50 (Histone deacetylase 8): > 20000 nM | IC50 (Histone deacetylase 9): > 20000 nM | IC50 [3]: > 20000 nM | IC50 (Histone deacetylase 4): > 20000 nM | IC50 (Histone deacetylase 2): 26 nM | IC50 [4]: 1000 nM | IC50 (Histone deacetylase 5): > 20000 nM | IC50 (Histone deacetylase 7): > 20000 nM
